Bounds are passed on as bounds.

Results on 37 molecules are retold here after US9034871B2, “Compounds for Alzheimer's disease” (priority 2004, dated 2015).

One test concerns Aβ42. Put plainly: Detection of secreted Aβ42 with Biosource ELISA kit in H4 cells expressing APP695. The test is classed as cell-based. The conditions noted are these: Ab42 lowering, cell based assay; read-out: Ab42 IC50. On the procedure:
The present invention provides compositions and methods for lowering Aβ42 levels. To test whether compounds and compositions are capable of modulating Aβ levels, a sandwich enzyme-linked immunosorbent assay (ELISA) is employed to measure secreted Aβ (Aβ42 and/or Aβ40) levels. In this example, H4 cells expressing wide type APP695 are seeded at 200,000 cells/per well in 6 well plates, and incubated at 37 degree C. with 5% CO2 overnight. Cells are treated with 1.5 ml medium containing vehicle (DMSO) or a test compound at 1.25 μM, 2.5 μM, 5.0 μM and 10.0 μM (as well as other concentration if desirable) concentration for 24 hours or 48 hours. The supernatant from treated cells is collected into eppendorf tubes and frozen at −80 degree C. for future analysis.
The amyloid peptide standard is reconstituted and frozen samples are thawed. The samples and standards are diluted with appropriate diluents and the plate is washed 4 times with Working Wash Buffer and patted dry on a paper towel. 100 μL per well of peptide standards, controls, and dilutions of samples to be analyzed is added. The plate is incubated for 2 hours while shaking on an orbital plate shaker at RT. The plate is then washed 4 times with Working Wash Buffer and patted dry on a paper towel. Detection Antibody Solution is poured into a reservoir and 100 μL /well of Detection Antibody Solution is immediately added to the plate. The plate is incubated at RT for 2 hours while shaking and then washed four times with Working Wash Buffer and patted dry on a paper towel. Secondary Antibody Solution is then poured into a reservoir and 100 μL /well of Secondary Antibody Solution is immediately added to the plate. The plate is incubated at RT for 2 hours with shaking, washed 5 times with Working Wash Buffer, and patted dry on a paper towel.
100 μL of stabilized chromogen is added to each well and the liquid in the wells begins to turn blue. The plate is incubated for 30 minutes at room temperature and in the dark. 100 μL of stop solution is added to each well and the plate is tapped gently to mix resulting in a change of solution color from blue to yellow. The absorbance of each well is read at 450 nm having blanked the plate reader against a chromogen blank composed of 100 μL each of stabilized chromogen and stop solution. The plate is read within 2 hours of adding the stop solution. The absorbance of the standards is plotted against the standard concentration and the concentrations of unknown samples and controls are calculated.
These compounds were synthesized via the indicated synthetic route. Ab42 IC50 (uM) refers to IC50 value for Ab42 lowering in e.g., the assay described in Example 6.
(In general: ELISA stands for enzyme-linked immunosorbent assay.)
With `c1ccc(-c2cc3c(n2-c2cccc(-c4nn[nH]n4)c2)CCc2ccccc2-3)cc1` [drawing 1720, 2-phenyl-3-[3-(2H-tetrazol-5-yl)-phenyl]-4,5-dihydro-3H-benzo[e]indole], the IC50 is 24 µM.
On the same count and under the same terms, in the case of `Cc1onc(-c2ccccc2)c1-c1cc2c3ccccc3ccc2n1-c1ccc(CCCC(=O)O)cc1` [4-{4-[2-(5-methyl-3-phenylisoxazol-4-yl)-benzo[e]indol-3-yl]-phenyl} butyric acid] it was 1 µM.
Consider `O=C(O)c1cccc(-n2c(-c3ccccc3)cc3c2CC(c2ccccn2)CC3)c1` (stereo not shown) [3-(2-phenyl-6-pyridin-2-yl-4,5,6,7-tetrahydroindol-1-yl) benzoic acid], for which the IC50 was determined as 70.8 µM.
Take `c1cc(-c2nn[nH]n2)cc(-n2c(-c3ccc4c(c3)OCO4)cc3c4ccccc4ccc32)c1` [2-benzo[1,3]dioxol-5-yl-3-[3-(2H-tetrazol-5-yl)-phenyl]-3H-benzo[e]indole]: the IC50 is 56 µM.
Still for that read-out and setting: then `c1ccc(-c2cc3c(n2-c2cccc(-c4nn[nH]n4)c2)CCc2ccccc2-3)nc1` [2-pyridin-2-yl-3-[3-(2H-tetrazol-5-yl)-phenyl]-4,5-dihydro-3H-benzo[e]indole], with 43 µM; and `c1cc(-c2nn[nH]n2)cc(-n2c(-c3ccncc3)cc3c2CCc2ccccc2-3)c1` [2-pyridin-4-yl-3-[3-(2H-tetrazol-5-yl)-phenyl]-4,5-dihydro-3H-benzo[e]indole], with 73 µM.
The same measure, in the same setting: in the case of `O=C(O)c1cccc(-n2c(-c3cc4ccccc4o3)cc3c4ccccc4ccc32)c1` [3-(2-benzofuran-2-yl-benzo[e]indol-3-yl) benzoic acid] it was 1.17 µM; in that of `O=C(O)c1cccc(-n2c(-c3ccsc3)cc3c4ccccc4ccc32)c1` [3-(2-thiophen-3-yl-benzo[e]indol-3-yl) benzoic acid], 13.2 µM; in that of `CCC(C)(C)C1CCc2c(cc(-c3cc4ccccc4o3)n2-c2ccc(C(=O)O)o2)C1` (stereo not shown) [5-[2-benzofuran-2-yl-5-(1,1-dimethylpropyl) 4,5,6,7-tetrahydroindol-1-yl]-furan-2-carboxylic acid], 18 µM.
Same read-out and setting: then `CC(C)(C)C1CCc2c(cc(-c3ccccc3)n2-c2nnc[nH]2)C1` (stereo not shown) [5-tButyl-2-phenyl-1-(4H-[1,2,4]triazol-3-yl)-4,5,6,7-tetrahydro-1H-indole], with 63 µM; and `O=C(O)c1ccc(-c2cc3c4ccccc4ccc3n2-c2ccoc2)cc1` [4-(3-furan-3-yl-3H-benzo[e]indol-2-yl) benzoic acid], with above 100 µM; and `CCC(C)(C)C1CCc2c(cc(-c3ccccc3)n2-c2nc(CC(=O)O)cs2)C1` (stereo not shown) [{2-[5-(1,1-dimethylpropyl)-2-phenyl-4,5,6,7-tetrahydroindol-1-yl]-thiazol-4-yl} acetic acid], with 6.5 µM.
For the molecule `O=C(O)c1ccc(-c2cc3c(n2-c2cccnc2)CCc2ccccc2-3)cc1` [4-(3-pyridin-3-yl-4,5-dihydro-3H-benzo[e]indol-2-yl) benzoic acid], the IC50 was above 100 µM.
Turning to `O=C(O)CCCc1ccc(-n2c(-c3ccc4c(c3)OCO4)cc3c2CCc2ccccc2-3)cc1` [4-[4-(2-benzo[1,3]dioxol-5-yl-dihydrobenzo[e]indol-3-yl)-phenyl] butyric acid], the IC50 was found to be 8.8 µM.
On the same count and under the same terms, in the case of `c1ccc(-c2cc3c(n2-c2cccc(-c4nn[nH]n4)c2)CCCC3)cc1` it was 100 µM; in that of `Cc1onc(-c2ccccc2)c1-c1cc2c(n1-c1ccc(CCCC(=O)O)cc1)CCc1ccccc1-2` [4-{4-[2-(5-methyl-3-phenylisoxazol-4-yl)-4,5-dihydrobenzo[e]indol-3-yl]-phenyl} butyric acid], 1.5 µM; in that of `O=C(O)c1cccc(-c2cc3c(n2-c2cccnc2)CCc2ccccc2-3)c1` [3-(3-pyridin-3-yl-4 5-dihydro-3H-benzo[e]indol-2-yl) benzoic acid], above 100 µM.
On the same count and under the same terms, in the case of `O=C(O)CCCc1ccc(-n2c(-c3cc(-c4ccccc4)no3)cc3c4ccccc4ccc32)cc1` [4-{4-[2-(3-phenylisoxazol-5-yl)-benzo[e]indol-3-yl]-phenyl} butyric acid] it was 4.5 µM; in that of `Cc1onc(-c2ccccc2)c1-c1cc2c3ccccc3ccc2n1-c1cccc(C(=O)O)c1` [3-[2-(5-methyl-3-phenylisoxazol-4-yl)-benzo[e]indol-3-yl] benzoic acid], 40 µM; in that of `c1ccc(-c2cc(-c3cc4c(n3-c3cccc(-c5nn[nH]n5)c3)CCc3ccccc3-4)on2)cc1` [drawing 1708, 2-(3-phenylisoxazol-5-yl)-3-[3-(2H-tetrazol-5-yl)-phenyl]-4,5-dihydro-3H-benzo[e]indole], 9.6 µM.
On the same count and under the same terms, in the case of `O=C(O)c1ccc(-n2c(-c3ccc(Cl)c(Cl)c3)cc3c4ccccc4ccc32)o1` [5-[2-(3,4-dichlorophenyl)-benzo[e]indol-3-yl]-furan-2-carboxylic acid] it was 7 µM.
`COc1ccc(-c2cc3c(n2-c2nc(C(=O)O)cs2)CCC(C(F)(F)F)C3)c(OC)c1` (stereo not shown) [2-[2-(2,4-dimethoxyphenyl)-5-trifluoromethyl-4,5,6,7-tetrahydroindol-1-yl]-thiazole-4-carboxylic acid]: the IC50 was above 100 µM.
Take `O=C(O)c1ccc(-n2c(-c3ccccc3)cc3c2CCC(C(F)(F)F)C3)o1` (stereo not shown) [5-(2-phenyl-5-trifluoromethyl 4,5,6,7-tetrahydroindol-1-yl)-furan-2-carboxylic acid]: the IC50 stood at 16.5 µM.
On the same count and under the same terms, in the case of `O=C(O)c1cccc(-n2c(-c3ccncc3)cc3c4ccccc4ccc32)c1` [3-(2-pyridin-4-yl-benzo[e]indol-3-yl) benzoic acid] it was 81 µM; in that of `O=C(O)c1cccc(-n2c(-c3cccnc3)cc3c2CCc2ccccc2-3)c1` [3-(2-pyridin-3-yl-4,5-dihydrobenzo[e]indol-3-yl) benzoic acid], above 100 µM; in that of `O=C(O)c1ccc(-n2c(-c3cc(-c4ccccc4)no3)cc3c4ccccc4ccc32)o1` [5-[2-(3-phenylisoxazol-5-yl)-benzo[e]indol-3-yl] furan-2-carboxylic acid], 33 µM.
Turning to `CCC(C)(C)C1CCc2c(cc(-c3ccccc3)n2-c2ccc(C(=O)O)o2)C1` (stereo not shown) [5-[5-(1,1-dimethylpropyl)-2-phenyl-4,5,6,7-tetrahydroindol-1-yl]-furan-2-carboxylic acid], the IC50 was 5.1 µM.
With `CC(C)(C)C1CCc2c(cc(-c3ccc(Cl)c(Cl)c3)n2-c2ccc(C(=O)O)o2)C1` (stereo not shown) [5-[5-tButyl-2-(3,4-dichlorophenyl)-4,5,6,7-tetrahydroindol-1-yl] furan-2-carboxylic acid], the IC50 is 11.7 µM.
Still for that read-out and setting: then `O=C(O)c1cccc(-n2c(-c3cccnc3)cc3c4ccccc4ccc32)c1` [3-(2-pyridin-3-yl-benzo[e]indol-3-yl) benzoic acid], with above 100 µM.
Same read-out and setting: in the case of `c1cncc(-c2cc3c4ccccc4ccc3n2-c2cccc(-c3nn[nH]n3)c2)c1` [2-pyridin-3-yl-3-[3-(2H-tetrazol-5-yl)-phenyl]-3H-benzo[e]indole] it was 46 µM.

The test is the same for the next values; noted with them: IC50 value for Ab42 lowering in e.g. the assay described in Example 6; read-out: Ab42 IC50.
With `O=C(O)c1ccc(-c2cc3c(n2-c2ccccc2)CCc2ccccc2-3)cc1` [Compound 69, 4-(3-phenyl-4,5-dihydro-3H-benzo[e]indol-2-yl) benzoic acid], the IC50 was 45 µM.
Turning to `O=C(O)c1cccc(-n2c(-c3ccccc3)cc3c4ccccc4ccc32)c1` [Compound 87, 3-(2-phenylbenzo[e]indol-3-yl) benzoic acid], the IC50 came to 12 µM.
Same read-out and setting: then `O=C(O)CCCn1c(-c2ccccc2)cc2c1CCc1ccccc1-2` [Compound 67, 4-(2-phenyl-4,5-dihydrobenzo[e]indol-3-yl) butyric acid], with 35 µM.
`CC(C)(C)C1CCc2c(cc(-c3ccccc3)n2-c2cccc(C(=O)O)c2)C1` (stereo not shown) [Compound 34, 3-(5-tert-butyl-2-phenyl-4,5,6,7-tetrahydroindol-1-yl)benzoic acid]: the IC50 turned out to be 8 µM.
The same measure, in the same setting: in the case of `c1ccc(-c2cc3c(n2-c2cccc(-c4nn[nH]n4)c2)CCc2ccccc2-3)cc1` [Compound 63, 2-phenyl-3-[3-(2H-tetrazol-5-yl)-phenyl]-4,5-dihydro-3H-benzo[e]indole] it was 24 µM.
As for `O=C(O)Cc1ccccc1-n1c(-c2ccccc2)cc2c1CCc1ccccc1-2` [Compound 92, [2-(2-phenyl-4,5-dihydrobenzo[e]indol-3-yl)-phenyl] acetic acid], the IC50 was 27 µM.
Same read-out and setting: then `CC(C)(C)C1CCc2c(cc(-c3ccccc3)n2-c2cccc(CCC(=O)O)c2)C1` (stereo not shown) [Compound 85, 3-[3-(5-tert-Butyl-2-phenyl 4,5,6,7-tetrahydroindol-1-yl)-phenyl] propionic acid], with 20 µM.

As a reminder, the IC50 is the concentration that inhibits the measured activity by half.
